Test results from ChEMBL document CHEMBL1649360, “β-carboline alkaloids from Stellaria dichotoma var. lanceolata and their anti-inflammatory activity” (J Nat Prod, 2010).

System: RAW264.7
Assay: Antiinflammatory activity in mouse RAW264.7 cells assessed as inhibition of LPS-stimulated nitric oxide production treated for 2 hrs before LPS challenge measured after 24 hrs […]
Type: functional, cell-based

Row | SMILES | IC50 [µM]
1 | COC(=O)/C=C\NC(=O)c1cc2c([nH]c3ccccc32)c(C(C)=O)n1 [STELLARINES B] | 18.6
2 | CC(=O)c1nc(C(N)=O)cc2c1[nH]c1ccccc12 [STELLARINES A] | 19.3
3 | N=C(N)NN [PIMAGEDINE] | 4.6

More lines, now with the values ahead:

Row | IC50 [µM] | SMILES
4 | 17.9 | COC(=O)c1cc2c([nH]c3ccccc32)c(C(C)=O)n1
5 | 17.3 | COC(=O)/C=C/NC(=O)c1cc2c([nH]c3ccccc32)c(C(C)=O)n1 [DICHOTOMIDE III]
6 | 11.3 | C/C=C(/C)C(=O)O[C@@H](C)c1nc(C(=O)N/C=C/C(=O)OC)cc2c1[nH]c1ccccc12 [DICHOTOMIDE X]
